One assay concerns RSV-A2-GFP virus. Nature of the assay: microbe, parasite or virus in culture. It counts as cell-based, Human Respiratory Syncytial Virus. The gist of the method:
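IC50 (GFP-expressing cell counts by Acumen imaging) and CC50 (same-well CellTiter-Glo) were obtained by 4-parameter logistic fitting. Compounds were tested in 10-point 3-fold series for 96 h at 37° C, 5% CO2. Thawed Calu-1 ARF cells were infected at MOI 1.2 with GFP-reporter RSV-A2 in 2% FBS DMEM.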

A further assay deals with hMPV-GFP virus. Put plainly: microbe, parasite or virus in culture. In kind it is cell-based, human metapneumovirus. The gist of the method: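 Antiviral IC50 was derived from imaging counts of GFP-expressing cells, with CC50 from a same-well CellTiter-Glo read, both by 4-parameter logistic fitting. VERO cells plus hMPV-GFP (MOI 1.25) were exposed 48 h at 37 °C to 10-point 3-fold compound dilutions (typical final 40,300–2 nM).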

Setting [1] is: Calu-1 cells infected with RSV-A2-GFP, 96 hrs, GFP-expressing cells counted, read-out: RSV EC50.
Where [2] appears, read: VERO cells infected with hMPV-GFP, 48 hrs, GFP-expressing cells counted, read-out: hMPV EC50.

Read-outs that look alike come from different tables or passages of the source. A value given as a limit tells only on which side of the number the result lay.

As usually defined, the EC50 is the midpoint of the concentration-response curve.

Turning to `Cc1nc(-c2ncccn2)sc1C(=O)N1C[C@@H]2[C@H](C1)[C@H]2Oc1cc(C(C)(C)N)cc(-c2cc(F)c(F)c(F)c2)n1` [Example 13, ((1R,5S,6s)-6-((4-(2-aminopropan-2-yl)-6-(3,4,5-trifluorophenyl)pyridin-2-yl)oxy)-3-azabicyclo[3.1.0]hexan-3-yl)(4-methyl-2-(pyrimidin-2-yl)thiazol-5-yl)methanone], the EC50 in the assay on RSV-A2-GFP virus (human respiratory syncytial virus, Calu-1, 96 h, read-out: RSV EC50, Calu-1 cells infected with RSV-A2-GFP, 96 hrs, GFP-expressing cells counted) is below 0.01 µM; with hMPV-GFP virus (human metapneumovirus, Vero, 48 h, read-out: hMPV EC50, VERO cells infected with hMPV-GFP, 48 hrs, GFP-expressing cells counted), 0.01 to 0.1 µM.

Take `Cc1nc(-c2ncccn2)sc1C(=O)N1C[C@@H]2[C@H](C1)[C@H]2Oc1cc(C(C)(C)N)cc(-c2ccc(F)c(F)c2F)n1` [Example 14, ((1R,5S,6s)-6-((4-(2-aminopropan-2-yl)-6-(2,3,4-trifluorophenyl)pyridin-2-yl)oxy)-3-azabicyclo[3.1.0]hexan-3-yl)(4-methyl-2-(pyrimidin-2-yl)thiazol-5-yl)methanone]: the EC50 with RSV-A2-GFP virus (setting [1]) was below 0.01 µM; in the assay on hMPV-GFP virus (setting [2]) it was 0.01 to 0.1 µM.

As for `Cc1nc(-c2ncccn2)sc1C(=O)N1C[C@@H]2[C@H](C1)[C@H]2Oc1cc(C(C)(C)N)cc(-c2cccc(F)c2)n1` [Example 16, ((1R,5S,6s)-6-((4-(2-aminopropan-2-yl)-6-(3-fluorophenyl)pyridin-2-yl)oxy)-3-azabicyclo[3.1.0]hexan-3-yl)(4-methyl-2-(pyrimidin-2-yl)thiazol-5-yl)methanone], the EC50 was below 0.01 µM in the assay on RSV-A2-GFP virus (setting [1]) and 0.01 to 0.1 µM with hMPV-GFP virus (setting [2]).

As to `Cc1nc(-c2ncccn2)sc1C(=O)N1C[C@@H]2[C@H](C1)[C@H]2Oc1cc(C(C)(C)N)cc(-c2ccc(F)c(Cl)c2)n1` [Example 17, ((1R,5S,6s)-6-((4-(2-aminopropan-2-yl)-6-(3-chloro-4-fluorophenyl)pyridin-2-yl)oxy)-3-azabicyclo[3.1.0]hexan-3-yl)(4-methyl-2-(pyrimidin-2-yl)thiazol-5-yl)methanone], the EC50 in the assay on RSV-A2-GFP virus (setting [1]) is below 0.01 µM; in the assay with hMPV-GFP virus (setting [2]) it was 0.01 to 0.1 µM.

Regarding `Cc1nc(-c2ncccn2)sc1C(=O)N1C[C@@H]2[C@H](C1)[C@H]2Oc1cc(C(C)(C)N)cc(-c2ccc(Cl)c(F)c2)n1` [Example 18, ((1R,5S,6s)-6-((4-(2-aminopropan-2-yl)-6-(4-chloro-3-fluorophenyl)pyridin-2-yl)oxy)-3-azabicyclo[3.1.0]hexan-3-yl)(4-methyl-2-(pyrimidin-2-yl)thiazol-5-yl)methanone], the EC50 with RSV-A2-GFP virus (setting [1]) was below 0.01 µM; in the assay on hMPV-GFP virus (setting [2]) it was 0.01 to 0.1 µM.

For the compound `Cc1nc(-c2ncccn2)sc1C(=O)N1C[C@@H]2[C@H](C1)[C@H]2Oc1cc(C(C)(C)N)cc(-c2ccc(Cl)cc2)n1` [Example 19, ((1R,5S,6s)-6-((4-(2-aminopropan-2-yl)-6-(4-chlorophenyl)pyridin-2-yl)oxy)-3-azabicyclo[3.1.0]hexan-3-yl)(4-methyl-2-(pyrimidin-2-yl)thiazol-5-yl)methanone], the EC50 with RSV-A2-GFP virus (setting [1]) and with hMPV-GFP virus (setting [2]) was below 0.01 µM throughout.

Consider `Cc1nc(-c2ncccn2)sc1C(=O)N1C[C@@H]2[C@H](C1)[C@H]2Oc1cc(C(C)(C)N)cc(-c2ccccc2)n1` [Example 20, ((1R,5S,6s)-6-((4-(2-aminopropan-2-yl)-6-phenylpyridin-2-yl)oxy)-3-azabicyclo[3.1.0]hexan-3-yl)(4-methyl-2-(pyrimidin-2-yl)thiazol-5-yl)methanone], for which the EC50 is below 0.01 µM in the assay with RSV-A2-GFP virus (setting [1]) and above 0.1 µM in the assay on hMPV-GFP virus (setting [2]).

For the compound `Cc1nc(-c2ncccn2)sc1C(=O)N1C[C@@H]2[C@H](C1)[C@H]2Oc1cc(C(C)(C)N)cc(-c2ccc(C3CC3)cc2)n1` [Example 22, ((1R,5S,6s)-6-((4-(2-aminopropan-2-yl)-6-(4-cyclopropylphenyl)pyridin-2-yl)oxy)-3-azabicyclo[3.1.0]hexan-3-yl)(4-methyl-2-(pyrimidin-2-yl)thiazol-5-yl)methanone], the EC50 is below 0.01 µM with RSV-A2-GFP virus (setting [1]) and above 0.1 µM in the assay with hMPV-GFP virus (setting [2]).

As for `Cc1nc(-c2ncccn2)sc1C(=O)N1C[C@@H]2[C@H](C1)[C@H]2Oc1cc(C(C)(C)N)cc(-c2ccc(C#N)cc2)n1` [Example 23, 4-(4-(2-aminopropan-2-yl)-6-(((1R,5S,6s)-3-(4-methyl-2-(pyrimidin-2-yl)thiazole-5-carbonyl)-3-azabicyclo[3.1.0]hexan-6-yl)oxy)pyridin-2-yl)benzonitrile], the EC50 in the assay with RSV-A2-GFP virus (setting [1]) is below 0.01 µM; with hMPV-GFP virus (setting [2]), above 0.1 µM.

For the compound `Cc1nc(-c2ncccn2)sc1C(=O)N1C[C@@H]2[C@H](C1)[C@H]2Oc1cc(C(C)(C)N)cc(-c2ccc(OC(F)F)cc2)n1` [Example 24, ((1R,5S,6s)-6-((4-(2-aminopropan-2-yl)-6-(4-(difluoromethoxy)phenyl)pyridin-2-yl)oxy)-3-azabicyclo[3.1.0]hexan-3-yl)(4-methyl-2-(pyrimidin-2-yl)thiazol-5-yl)methanone], the values for the EC50 in the assay with RSV-A2-GFP virus (setting [1]) and in the assay on hMPV-GFP virus (setting [2]) were below 0.01 µM and 0.01 to 0.1 µM, respectively.

Turning to `Cc1nc(-c2ncccn2)sc1C(=O)N1C[C@@H]2[C@H](C1)[C@H]2Oc1cc(C(C)(C)N)cc(-c2ccc(C(F)F)cc2)n1` [Example 25, ((1R,5S,6s)-6-((4-(2-aminopropan-2-yl)-6-(4-(difluoromethyl)phenyl)pyridin-2-yl)oxy)-3-azabicyclo[3.1.0]hexan-3-yl)(4-methyl-2-(pyrimidin-2-yl)thiazol-5-yl)methanone], the EC50 with RSV-A2-GFP virus (setting [1]) was below 0.01 µM; with hMPV-GFP virus (setting [2]), 0.01 to 0.1 µM.

`Cc1nc(-c2ncccn2)sc1C(=O)N1C[C@@H]2[C@H](C1)[C@H]2Oc1cc(C(C)(C)N)cc(-c2ccc(C(C)(F)F)cc2)n1` [Example 26, ((1R,5S,6s)-6-((4-(2-aminopropan-2-yl)-6-(4-(1,1-difluoroethyl)phenyl)pyridin-2-yl)oxy)-3-azabicyclo[3.1.0]hexan-3-yl)(4-methyl-2-(pyrimidin-2-yl)thiazol-5-yl)methanone]: the EC50 was below 0.01 µM in the assay with RSV-A2-GFP virus (setting [1]) and 0.01 to 0.1 µM in the assay with hMPV-GFP virus (setting [2]).

In the case of `Cc1nc(-c2ncccn2)sc1C(=O)N1C[C@@H]2[C@H](C1)[C@H]2Oc1cc(C(C)(C)N)cc(-c2ccc(C(F)(F)F)cc2)n1` [Example 27, ((1R,5S,6s)-6-((4-(2-aminopropan-2-yl)-6-(4-(trifluoromethyl)phenyl)pyridin-2-yl)oxy)-3-azabicyclo[3.1.0]hexan-3-yl)(4-methyl-2-(pyrimidin-2-yl)thiazol-5-yl)methanone], the EC50 in the assay on RSV-A2-GFP virus (setting [1]) is below 0.01 µM; with hMPV-GFP virus (setting [2]), 0.01 to 0.1 µM.

With `Cc1nc(-c2ncccn2)sc1C(=O)N1C[C@@H]2[C@H](C1)[C@H]2Oc1cc(C(C)(C)N)cc(-c2ccc(C(F)(F)F)nc2)n1` [Example 28, ((1R,5S,6s)-6-((4-(2-aminopropan-2-yl)-6′-(trifluoromethyl)-[2,3′-bipyridin]-6-yl)oxy)-3-azabicyclo[3.1.0]hexan-3-yl)(4-methyl-2-(pyrimidin-2-yl)thiazol-5-yl)methanone], the results for the EC50 with RSV-A2-GFP virus (setting [1]) and in the assay with hMPV-GFP virus (setting [2]) were below 0.01 µM and 0.01 to 0.1 µM, respectively.

As for `Cc1nc(-c2ncccn2)sc1C(=O)N1C[C@@H]2[C@H](C1)[C@H]2Oc1cc(C(C)(C)N)cc(-c2ccc(C(F)(F)F)c(Cl)c2)n1` [Example 29, ((1R,5S,6s)-6-((4-(2-aminopropan-2-yl)-6-(3-chloro-4-(trifluoromethyl)phenyl)pyridin-2-yl)oxy)-3-azabicyclo[3.1.0]hexan-3-yl)(4-methyl-2-(pyrimidin-2-yl)thiazol-5-yl)methanone], the half-maximal effective concentration (EC50) with RSV-A2-GFP virus (setting [1]) is below 0.01 µM; in the assay on hMPV-GFP virus (setting [2]) it was 0.01 to 0.1 µM.

Take `Cc1nc(-c2ncccn2)sc1C(=O)N1C[C@@H]2[C@H](C1)[C@H]2Oc1cc(C(C)(C)N)cc(-c2ccc(C(F)(F)F)cc2Cl)n1` [Example 30, ((1R,5S,6s)-6-((4-(2-aminopropan-2-yl)-6-(2-chloro-4-(trifluoromethyl)phenyl)pyridin-2-yl)oxy)-3-azabicyclo[3.1.0]hexan-3-yl)(4-methyl-2-(pyrimidin-2-yl)thiazol-5-yl)methanone]: the EC50 is below 0.01 µM with RSV-A2-GFP virus (setting [1]) and 0.01 to 0.1 µM in the assay with hMPV-GFP virus (setting [2]).

As for `Cc1nc(-c2ncccn2)sc1C(=O)N1C[C@@H]2[C@H](C1)[C@H]2Oc1cc(C(C)(C)N)cc(-c2ccc(C(F)(F)F)c(F)c2F)n1` [Example 31, ((1R,5S,6s)-6-((4-(2-aminopropan-2-yl)-6-(2,3-difluoro-4-(trifluoromethyl)phenyl)pyridin-2-yl)oxy)-3-azabicyclo[3.1.0]hexan-3-yl)(4-methyl-2-(pyrimidin-2-yl)thiazol-5-yl)methanone], the EC50 in the assay on RSV-A2-GFP virus (setting [1]) is below 0.01 µM; in the assay on hMPV-GFP virus (setting [2]), 0.01 to 0.1 µM.

For `Cc1ccc(-c2cc(C(C)(C)N)cc(O[C@H]3[C@@H]4CN(C(=O)c5sc(-c6ncccn6)nc5C)C[C@@H]43)n2)cc1C` [Example 32, ((1R,5S,6s)-6-((4-(2-aminopropan-2-yl)-6-(3,4-dimethylphenyl)pyridin-2-yl)oxy)-3-azabicyclo[3.1.0]hexan-3-yl)(4-methyl-2-(pyrimidin-2-yl)thiazol-5-yl)methanone], the EC50 was below 0.01 µM with RSV-A2-GFP virus (setting [1]) and above 0.1 µM with hMPV-GFP virus (setting [2]).

As for `Cc1ccc(-c2cc(C(C)(C)N)cc(O[C@H]3[C@@H]4CN(C(=O)c5sc(-c6ncccn6)nc5C)C[C@@H]43)n2)c(C)c1` [Example 33, ((1R,5S,6s)-6-((4-(2-aminopropan-2-yl)-6-(2,4-dimethylphenyl)pyridin-2-yl)oxy)-3-azabicyclo[3.1.0]hexan-3-yl)(4-methyl-2-(pyrimidin-2-yl)thiazol-5-yl)methanone], the concentration for a half-maximal effect (EC50) in the assay with RSV-A2-GFP virus (setting [1]) is below 0.01 µM; with hMPV-GFP virus (setting [2]), above 0.1 µM.

(Values after patent US12643882B2, “Inhibitors of human respiratory syncytial virus and metapneumovirus” (priority 2022, dated 2026).)
